# Test results reported in patent US20240139198A1, “METHOD AND COMBINATION FOR TREATING TUMORS” (CURON BIOPHARMACEUTICAL (SHANGHAI) CO., LIMITED, priority 2021, published 2024).
# Experiments:
# A20 cells = assay: A20 mouse B-cell lymphoma animal model, tumor growth in Balb/c mice; format: in vivo
# Method: The animal experiment was carried out in accordance with the requirements of AAALAC, and was approved by Bikai Animal Experiment Center IACUC to conduct. 6-8 week-old Balb/c mice (16-20 grams) were purchased from Beijing Weitong Lihua Experimental Animal Technology Co., Ltd. Each mouse was subcutaneously inoculated with 500,000 A20 cells, and inoculated on the right rear side of the back of the mouse. When the volume of the tumor grew to about 60mm^3, the mice were randomly assigned to the control group and the experimental group.
# Mice were euthanized whnmorbidity or weightloss>20% was observed. Tumors were measured with a caliper twice weekly until final sacrifice. When a tumor size reached approximately 2000 mm^3 or there were animal health issues (20% area of a tumor ulcerated), the animals would be euthanized an date of death recorded. Solid tumor volumes were estimated from two dimensional tumor measurements and calculated according to the following equation:
# Tumor volume (mm 3)=[length(mm)×width2 (mm 2)]/2
# The percent median regression for a group at a given day was then obtained by taking the median of the individual percent regression calculated for each animal of the group at this day. The day of calculation was determined on the day when ΔT/ΔC (i.e., the ratio of medians of tumor volume changes from baseline between the treated and control groups)was calculated, except when median percent regression was not representative of the activity of the group. In that case, the day was determined on the first day when the median percent regression was maximal. Regressions were defined as partial (PR) if the tumor volume decreased to 50% of the tumor volume at the start of treatment. Complete regression (CR) was considered to have been achieved when tumor volume was below 14 mm^3 or could not be recorded. • RTV: Relative Tumor Volume. RTV=Vt/V0∘ Vt: Tumor volume at the end of an experimental period (treatment group). V0: tumor volume at the beginning of the experiment • TGI: Tumor Growth Inhibition value. TGI=[1−RTV(experimental group)/RTV(control group)]*100%
# A two-way ANOVA type with factors treatment an day(repeated) was performed on tumor volume changes from baseline. In case of significant treatment day interaction or treatment effects, it was followed by a contrast analysis with Bonferroni-Holm correction for multiplicity to compare all treated groups to the control group at each day from day 8 to 27. Tumor volume changes from baseline were calculated for each animal and each day by subtracting the tumor volume on the day of first treatment from the tumor volume on the specified observation day. As heterogeneity of variances was observed between groups, the compound symmetric(CS) covariance structure with group=option was chosen for the ANOVA type model (SAS Institute Inc. (2008) SAS/STAT 9.2User′s Guide by CaryNC). All statistical analyses were performed using SAS version v9.2 software. A probability less than 5% (p<0.05).
# 6-8 weeks old balb/c mice (18-20 g) were purchased from Beijing Weitong Lihua Experimental Animal Technology Co., Ltd., and each mouse was subcutaneously inoculated with 500,000 A20 cells on the right rear side of the mouse's back. Treatment was initiated when tumors grew to a volume of approximately 62 mm^3. CN401 was orally administered at 150 mg/kg twice a day for 3 weeks.
# CN202 was administered by intraperitoneal injection, 3 times a week at a dose of 5 mg/kg for 3 weeks. The control group was treated with vehicle (0.5% MC and PBS) without active product. Tumor size and body weight were measured three times a week. This animal experiment was carried out in accordance with the requirements of AAALAC, and was approved by Bikai Animal Experiment Center IACUC to conduct this animal experiment.
# Referring to the experimental method of Example 1.1, the difference is that the dosage of CN202 is replaced by 15 mg/kg from 5 mg/kg. […]
# [1] = system: EMT-6 cells (mouse triple-negative breast cancer cells); format: in vivo; details: Example 4, CN401 150 mg/kg oral, twice a week × 4 week (Table 12)
# Method: Tumors were measured with a caliper twice weekly until final sacrifice. […] Solid tumor volumes were estimated from two dimensional tumor measurements and calculated according to the following equation: […]
molecule,measurement,setting,value
"Cc1nc(NC(=O)N2CCC[C@H]2C(N)=O)sc1-c1ccnc(C(C)(C)C(F)(F)F)c1 [Alpelisib, (2S)-1-N-[4-methyl-5-[2-(1,1,1-trifluoro-2-methylpropan-2-yl)pyridin-4-yl]-1,3-thiazol-2-yl]pyrrolidine-1,2-dicarboxamide, reference compound]",CR(Number of mice with tumor regression/total amount of mice in each group),"A20 cells; Example 2.2, Alpelisib 50 mg/kg p.o. qd × 3 weeks, day 21",0/7
same,TGI %,"A20 cells; Example 2.2, Alpelisib 50 mg/kg p.o. qd × 3 weeks, day 21 vs vehicle control, p=0.161",37%
"CC[C@H](Nc1ncnc2nc[nH]c12)c1oc2ccccc2c(=O)c1-c1cccc(F)c1 [CN401, (S)-2-(1-(9H-purin-6-ylamino)propylgroup)-3-(3-fluorophenyl)-4H-chromen-4-one]",CR(Number of mice with tumor regression/total amount of mice in each group),"A20 cells; Example 1.1, CN401 150 mg/kg p.o. bid × 3 weeks, day 22",2/8
same,TGI %,"A20 cells; Example 1.1, CN401 150 mg/kg p.o. bid × 3 weeks, day 22 vs vehicle control, p=0.034",55%
same,CR(Number of mice with tumor regression/total amount of mice in each group),"A20 cells; Example 1.2, CN401 150 mg/kg p.o. bid × 3 weeks, day 22",2/8
same,TGI %,"A20 cells; Example 1.2, CN401 150 mg/kg p.o. bid × 3 weeks, day 22 vs vehicle control, p=0.034",55%
same,CR(Number of mice with tumor regression/total amount of mice in each group),"A20 cells; Example 2.1, CN401 150 mg/kg p.o. bid × 3 weeks, day 22",0/7
same,TGI %,"A20 cells; Example 2.1, CN401 150 mg/kg p.o. bid × 3 weeks, day 22 vs vehicle control, p=0.028",45%
same,CR(Number of mice with tumor regression/total amount of mice in each group),"A20 cells; Example 3, CN401 150 mg/kg p.o. bid × 3 weeks, day 22",2/8
same,TGI %,"A20 cells; Example 3, CN401 150 mg/kg p.o. bid × 3 weeks, day 22 vs vehicle control, p=0.034",55%
same,TGI %,"[1]; 14th day vs vehicle control, p=0.87",3%
same,CR(Number of mice with tumor regression/total amount of mice in each group),[1]; observed up to 80 days,0/8
"Anti-PD-L1 Ab: Anti-PD-L1 antibody (Atezolizumab), CAS Number: 1380723-44-3 [reference compound]",CR(Number of mice with tumor regression/total amount of mice in each group),"A20 cells; Example 3, anti-PD-L1 Ab (atezolizumab) 5 mg/kg i.p. biw × 3 weeks, day 22",0/8
same,TGI %,"A20 cells; Example 3, anti-PD-L1 Ab (atezolizumab) 5 mg/kg i.p. biw × 3 weeks, day 22 vs vehicle control, p=0.57",15%
